Source: PMC3770298 (ACS medicinal chemistry letters, 2013)

Tests used:
[1] = target: T1, RORγ (Mus musculus, UniProt P51450); test: cell-based RORγ gene reporter assay; conditions: for IC50 (μM) (RORγ): Table 1, region A, mean of four replicates from two independent experiments
T1 sequence (P51450 1-516): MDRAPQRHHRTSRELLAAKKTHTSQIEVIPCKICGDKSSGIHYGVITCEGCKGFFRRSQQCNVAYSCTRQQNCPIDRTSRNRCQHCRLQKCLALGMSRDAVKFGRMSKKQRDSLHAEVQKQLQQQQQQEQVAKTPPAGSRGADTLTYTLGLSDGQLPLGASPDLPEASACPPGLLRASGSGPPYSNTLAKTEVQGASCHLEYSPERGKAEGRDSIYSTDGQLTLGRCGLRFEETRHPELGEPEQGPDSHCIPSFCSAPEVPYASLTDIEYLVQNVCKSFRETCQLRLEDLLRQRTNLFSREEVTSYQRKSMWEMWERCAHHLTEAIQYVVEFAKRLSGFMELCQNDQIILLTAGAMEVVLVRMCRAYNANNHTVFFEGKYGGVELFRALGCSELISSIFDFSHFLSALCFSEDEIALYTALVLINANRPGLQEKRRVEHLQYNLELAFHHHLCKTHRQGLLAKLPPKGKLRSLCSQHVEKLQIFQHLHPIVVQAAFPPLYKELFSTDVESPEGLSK

[2] = target: T2, RORγ ligand binding domain (LBD) (Homo sapiens, UniProt P51449); test: fluoroprobe; conditions: competition assay
T2 sequence (P51449 269-508 limits assumed): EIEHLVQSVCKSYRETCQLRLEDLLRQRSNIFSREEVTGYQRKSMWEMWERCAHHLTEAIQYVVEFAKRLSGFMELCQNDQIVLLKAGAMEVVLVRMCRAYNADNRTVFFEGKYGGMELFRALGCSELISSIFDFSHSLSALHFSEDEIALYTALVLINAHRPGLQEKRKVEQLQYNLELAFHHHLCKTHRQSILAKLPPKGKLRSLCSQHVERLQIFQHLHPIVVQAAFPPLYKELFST

[3] = test system: VP16; assay type: cell-based; conditions: up to 96 μM
[4] = target: T3, RORα (Mus musculus, UniProt P51448); test: RORα gene reporter assay; assay type: cell-based; conditions: up to 96 μM
T3 sequence (P51448 1-523): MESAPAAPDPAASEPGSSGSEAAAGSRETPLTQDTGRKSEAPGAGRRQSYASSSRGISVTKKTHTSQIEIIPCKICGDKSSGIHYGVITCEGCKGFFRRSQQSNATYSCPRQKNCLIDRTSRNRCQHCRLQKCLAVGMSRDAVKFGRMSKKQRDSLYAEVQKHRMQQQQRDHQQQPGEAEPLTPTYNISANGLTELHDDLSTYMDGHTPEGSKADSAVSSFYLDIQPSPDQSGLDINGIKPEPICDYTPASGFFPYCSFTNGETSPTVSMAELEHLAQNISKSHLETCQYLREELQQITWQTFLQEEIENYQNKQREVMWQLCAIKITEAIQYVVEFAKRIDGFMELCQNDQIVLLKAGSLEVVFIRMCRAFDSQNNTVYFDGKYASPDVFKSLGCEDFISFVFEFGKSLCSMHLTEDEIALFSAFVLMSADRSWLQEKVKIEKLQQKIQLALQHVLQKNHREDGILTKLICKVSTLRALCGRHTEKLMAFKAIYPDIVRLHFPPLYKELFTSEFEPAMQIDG

[5] = target: T4, DHR3 (Drosophila melanogaster, UniProt P31396); test: DHR3 gene reporter assay; assay type: cell-based; conditions: up to 96 μM
T4 sequence (P31396 1-487): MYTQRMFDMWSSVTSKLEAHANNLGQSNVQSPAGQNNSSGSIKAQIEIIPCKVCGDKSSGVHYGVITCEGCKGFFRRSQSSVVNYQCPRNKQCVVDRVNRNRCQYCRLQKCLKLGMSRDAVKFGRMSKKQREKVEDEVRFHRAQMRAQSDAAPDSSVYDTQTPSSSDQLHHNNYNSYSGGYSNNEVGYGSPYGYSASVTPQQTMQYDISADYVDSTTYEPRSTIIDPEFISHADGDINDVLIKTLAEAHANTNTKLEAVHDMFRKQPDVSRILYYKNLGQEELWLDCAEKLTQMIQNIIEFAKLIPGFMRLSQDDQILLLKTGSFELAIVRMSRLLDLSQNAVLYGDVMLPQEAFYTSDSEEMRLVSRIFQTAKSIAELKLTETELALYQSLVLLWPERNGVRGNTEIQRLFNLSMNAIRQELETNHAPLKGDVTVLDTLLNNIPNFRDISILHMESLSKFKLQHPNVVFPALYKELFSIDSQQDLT

[6] = test system: mouse TH17 cell differentiation; test: mouse TH17 cell differentiation; assay type: cell-based; conditions: read-out: inhibition of mouse TH17 cell differentiation
[7] = test system: Th1 cell differentiation; test: Th1 cell differentiation; assay type: cell-based, mouse; conditions: 20 μM; data not shown

For `COc1cc(O)c(C(CC(=O)N2C[C@@H](C)N[C@@H](C)C2)c2ccc3c(c2)OCO3)c(OC)c1` (stereo partly drawn) [Compound 4m], the “IC50 (μM) (RORγ)” value [1] was “inactive”.

For `C[C@H]1O[C@@H](O[C@H]2[C@@H](O)C[C@H](O[C@H]3[C@@H](O)C[C@H](O[C@H]4CC[C@@]5(C)[C@H](CC[C@@H]6[C@@H]5C[C@@H](O)[C@]5(C)[C@@H](C7=CC(=O)OC7)CC[C@]65O)C4)O[C@@H]3C)O[C@@H]2C)C[C@H](O)[C@@H]1O` [Digoxin, reference compound], the “result in qHTS for RORγ antagonists” value ([1]; qHTS of 310,000 compounds with VP16 counterscreen) was “selective antagonists”.

In the case of `COc1cc(O)c(C(CC(=O)N2CCOCC2)c2ccc3c(c2)OCO3)c(OC)c1` (stereo not drawn) [Compound 4k], the “IC50 (μM) (RORγ)” value [1] is reported as “inactive” and the “displacement of hydroxycholesterol from RORγ LBD” value [2] is reported as “failed to displace”.

In the case of `COc1cc(O)c(C(CC(=O)N2CCCC(C)C2)c2ccc3c(c2)OCO3)c(OC)c1` (stereo not drawn) [Compound 4a], the “activity in the VP16 assay” value [3] is reported as “no activity”, the “activity in the RORα assay” value [4] is reported as “no activity” and the “activity in the DHR3 assay” value [5] is reported as “no activity”. For the same compound, the inhibition at 20 µM [6] was 84% and the “effect on Th1 cell differentiation” value [7] was “no effect”.
